Measurements taken from PMC7093416, “Selective USP7 inhibition elicits cancer cell killing through a p53-dependent mechanism” (Scientific Reports, 2020).

Experiments:
[1] = system: TC32 cells; experiment: Cell viability (CellTiter-Glo) in TC32 cells expressing sgRNA (TP53-KO vs control); assay type: cell-based; details: 3 days
Description: Cells were plated in 384-well culture-treated plates and allowed to settle overnight. After drug treament and appropriate incubation time, cell viability was assessed using the CellTiter-Glo Luminescent Cell Viability Assay (Promega). Luminescence was read on a Fluostar Omega Reader (BMG Labtech).

[2] = target: T1, USP7-Q351S (Homo sapiens, UniProt Q93009, Q351S); experiment: Ub-AMC enzymatic assay, USP7-Q351S mutant; assay type: biochemical; details: 6-hr pre-incubation
T1 construct: made in house
T1 sequence (Q93009 whole entry Q351S): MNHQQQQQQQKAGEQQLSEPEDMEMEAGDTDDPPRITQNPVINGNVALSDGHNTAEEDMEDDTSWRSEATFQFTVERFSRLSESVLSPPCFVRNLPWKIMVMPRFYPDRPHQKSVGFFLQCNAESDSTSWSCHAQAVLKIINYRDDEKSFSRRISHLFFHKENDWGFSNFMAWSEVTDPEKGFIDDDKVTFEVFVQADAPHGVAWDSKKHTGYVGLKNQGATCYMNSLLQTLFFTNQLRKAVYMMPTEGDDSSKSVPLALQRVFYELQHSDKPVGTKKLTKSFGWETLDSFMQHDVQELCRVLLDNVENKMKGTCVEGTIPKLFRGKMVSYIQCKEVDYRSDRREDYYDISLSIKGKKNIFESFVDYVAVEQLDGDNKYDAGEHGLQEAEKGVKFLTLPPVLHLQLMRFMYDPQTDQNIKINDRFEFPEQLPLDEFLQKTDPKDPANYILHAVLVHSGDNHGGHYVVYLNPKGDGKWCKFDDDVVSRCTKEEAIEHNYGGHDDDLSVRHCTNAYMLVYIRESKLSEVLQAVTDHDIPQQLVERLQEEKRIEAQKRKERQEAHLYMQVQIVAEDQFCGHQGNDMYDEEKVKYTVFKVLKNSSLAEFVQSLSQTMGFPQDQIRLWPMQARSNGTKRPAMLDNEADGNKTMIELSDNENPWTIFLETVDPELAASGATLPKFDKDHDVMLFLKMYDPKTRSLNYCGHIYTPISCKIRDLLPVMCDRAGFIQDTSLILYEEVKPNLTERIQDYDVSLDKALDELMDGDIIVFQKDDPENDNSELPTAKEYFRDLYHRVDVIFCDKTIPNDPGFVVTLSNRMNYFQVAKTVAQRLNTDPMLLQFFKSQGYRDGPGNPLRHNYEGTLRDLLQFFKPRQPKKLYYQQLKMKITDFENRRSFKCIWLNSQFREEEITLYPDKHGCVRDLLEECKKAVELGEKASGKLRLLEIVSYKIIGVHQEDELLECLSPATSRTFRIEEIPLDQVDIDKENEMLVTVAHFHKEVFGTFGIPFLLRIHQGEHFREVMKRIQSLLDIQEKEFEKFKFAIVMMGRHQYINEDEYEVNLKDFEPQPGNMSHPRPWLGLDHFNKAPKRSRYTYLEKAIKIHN
Description: Full length USP7 was tested for its activity in Ubiquitin-AMC assay in presence or absence of inhibitors. USP7 (5 nM) was pre-incubated for 6 hours at room temperature with different concentrations of inhibitors or DMSO as a control in 50 mM HEPES pH 7.5, 0.5 mM EDTA, 11 uM ovalbumin, and 5 mM DTT. Ubiquitin-AMC (Boston Biochem) was then added to a final concentration of 500 nM. The initial rate of the reaction was measured by collecting fluorescence data at one minute intervals over 30-minute period using a Clariostar fluorescence plate reader at excitation and emission wavelength of 345 and 445 nm respectively. The calculated initial rate values were plotted against inhibitor concentrations to determine IC50s. All the experimental data were plotted using Prism GraphPad. All assays for each compound were performed at least twice for each compound.

[3] = target: USP7 (Homo sapiens, UniProt Q93009); experiment: XL177A-DTB chemoproteomic profiling with XL177A competition, USP7; assay type: binding; set-up: endogenous in cells; host or cells: HEK 293AD lysate
USP7, sequence (Q93009 whole entry): as the sequence (Q93009 whole entry Q351S) above, with S351Q counted along it
Description: HEK 293AD cells were lysed as described above, and the lysate was cleared by centrifugation. […] SDS was added to a final concentration of 1.2% (27.2 μL of a 10% stock), and denatured by heating to 80 °C for 5 minutes. After cooling to RT, 1125 μL 1X PBS was added to dilute the final SDS concentration to 0.2%. 50 μL streptavidin agarose slurry was added to each sample, followed by incubation at RT for 3 hours. After streptavidin enrichment, samples were washed vigorously (2×0.2% SDS, 3x PBS, 3x ddH2O). After the final wash, all supernatant was removed using a flat-bottom tip, and the resin was flash frozen and stored at −80 °C until workup for TMT labeling.
To remove rapigest, recovered supernatants were acidified with 10% TFA, incubated at 37 °C for 45 minutes, and centrifuged at 14,000 rpm for 15 minutes at 4 °C. Peptides were then desalted by C18, and dried by vacuum centrifugation. Dried peptides were reconstituted in 50 mM pH8.0 TEAB and labeled with TMT reagent at RT for 1 hour. TMT reactions were pooled and treated with hydroxylamine according to the manufacturer’s instructions. Peptide mixtures were then dried, reconstituted in 50 mM ammonium bicarbonate and desalted by SP3[53]. Eluted peptides were then analyzed by nanoflow LC-MS/MS as described[64] with a NanoAcquity UPLC system (Waters, Milford, MA) interfaced to a QExactive HF mass spectrometer (Thermofisher Scientific, San Jose, CA). TMT labeled peptides were injected onto a precolumn (4 cm POROS 10R2, Applied Biosystems, Framingham, MA), resolved on an analytical column (30 µm I.D. × 50 cm packed with 5 µm Monitor C18) and introduced to the mass spectrometer by ESI (spray voltage = 3.5 kV, flow rate ~30 nL/min). The mass spectrometer was operated in data dependent mode such that the 15 most abundant ions in each MS scan (m/z 300–2000, 120 K resolution, target = 3E6, lock mass for 445.120025 enabled) were subjected to MS/MS (m/z 100–2000, 30 K resolution, target = 1E5, max fill time = 100 ms). Dynamic exclusion was selected with a repeat count of 1 and an exclusion time of 30 seconds. MS/MS data was extracted to.mgf using mulitplierz scripts[54],[55] and searched against a forward-reverse human NCBI refseq database using Mascot version 2.6. Search parameters specified fixed carbamidomethylation of cysteine, fixed N-terminal and lysine TMT labelling, and variable oxidation (methionine). Additional multiplierz scripts were used to filter results to 1% FDR and derive protein-level aggregate reporter ion intensities using peptides mapping uniquely into the genome.

[4] = USP7 reporter ion intensity, XL177A-DTB pulldown, HEK293AD lysate pre-treated 100nM XL177A
[5] = USP7 reporter ion intensity, XL177A-DTB pulldown, HEK293AD lysate pre-treated 1uM XL177A
[6] = USP7 reporter ion intensity, XL177A-DTB pulldown, HEK293AD lysate pre-treated 10uM XL177A
[7] = USP7 reporter ion intensity, average of Run 1 and Run 2, 100nM XL177A
[8] = USP7 reporter ion intensity, average of Run 1 and Run 2, 1uM XL177A
[9] = USP7 reporter ion intensity, average of Run 1 and Run 2, 10uM XL177A

SMILES: CN1CCN(CCC(=O)Nc2ccc3c(=O)n(CC4(O)CCN(C(=O)[C@@H](CCCNC(=O)c5ccc6c(Cl)c7c(nc6c5)CCCC7)Cc5ccccc5)CC4)cnc3c2)CC1 [XL177A]
- effect of TP53 KO on growth suppression [1]: completely rescued TC32 growth except at high doses
- IC50 [2]: 189 nM
- inhibition of XL177A-DTB labeling ([3]; HEK293 lysate, XL177A 1 or 10 μM, 5 hours, only USP7 of 566 proteins): > 3 fold
- Run 1 100nM 1 [3, 4]: 31732106
- Run 1 100nM 2 [3, 4]: 30184262
- Run 1 100nM 3 [3, 4]: 32232481
- Run 2 100nM 1 [3, 4]: 31803721
- Run 2 100nM 2 [3, 4]: 30185364
- Run 2 100nM 3 [3, 4]: 32073312
- Run 1 1uM 1 [3, 5]: 8663971
- Run 1 1uM 2 [3, 5]: 7593596
- Run 1 1uM 3 [3, 5]: 8340895
- Run 2 1uM 1 [3, 5]: 8601953
- Run 2 1uM 2 [3, 5]: 7625246
- Run 2 1uM 3 [3, 5]: 8414168
- Run 1 10uM 1 [3, 6]: 7727617
- Run 1 10uM 2 [3, 6]: 7625585
- Run 2 10uM 1 [3, 6]: 7739438
- Run 2 10uM 2 [3, 6]: 7761626
- AVE 100nM 1 [3, 7]: 31767914
- AVE 100nM 2 [3, 7]: 30184813
- AVE 100nM 3 [3, 7]: 32152896
- AVE 1uM 1 [3, 8]: 8632962
- AVE 1uM 2 [3, 8]: 7609421
- AVE 1uM 3 [3, 8]: 8377532
- AVE 10uM 1 [3, 9]: 7733528
- AVE 10uM 2 [3, 9]: 7693606
